Experimental data: patent publication US20260216400A1, “CELL-[…] MOLECULE IMPARTING PROTEIN ADHESION […] CELLS” (THE UNIVERSITY OF OSAKA, priority 2023, published 2026)

Experiments:
Assay in all cases: Binding of FITC-labeled collagen-binding peptides to coated wells (Example 6)
laminin = conditions: 37° C., 3 hours
Method: (§1) The selectivity of collagen-binding peptides for components of the extracellular matrix was investigated. […] After washing, the fluorescence intensity was measured using a confocal laser scanning microscope.

type IV collagen = conditions: 37° C., 3 hours
Method: as §1

type I collagen = type I collagen (Homo sapiens, UniProt P02452+P08123)
Sequence of type I collagen (P08123 80-1119): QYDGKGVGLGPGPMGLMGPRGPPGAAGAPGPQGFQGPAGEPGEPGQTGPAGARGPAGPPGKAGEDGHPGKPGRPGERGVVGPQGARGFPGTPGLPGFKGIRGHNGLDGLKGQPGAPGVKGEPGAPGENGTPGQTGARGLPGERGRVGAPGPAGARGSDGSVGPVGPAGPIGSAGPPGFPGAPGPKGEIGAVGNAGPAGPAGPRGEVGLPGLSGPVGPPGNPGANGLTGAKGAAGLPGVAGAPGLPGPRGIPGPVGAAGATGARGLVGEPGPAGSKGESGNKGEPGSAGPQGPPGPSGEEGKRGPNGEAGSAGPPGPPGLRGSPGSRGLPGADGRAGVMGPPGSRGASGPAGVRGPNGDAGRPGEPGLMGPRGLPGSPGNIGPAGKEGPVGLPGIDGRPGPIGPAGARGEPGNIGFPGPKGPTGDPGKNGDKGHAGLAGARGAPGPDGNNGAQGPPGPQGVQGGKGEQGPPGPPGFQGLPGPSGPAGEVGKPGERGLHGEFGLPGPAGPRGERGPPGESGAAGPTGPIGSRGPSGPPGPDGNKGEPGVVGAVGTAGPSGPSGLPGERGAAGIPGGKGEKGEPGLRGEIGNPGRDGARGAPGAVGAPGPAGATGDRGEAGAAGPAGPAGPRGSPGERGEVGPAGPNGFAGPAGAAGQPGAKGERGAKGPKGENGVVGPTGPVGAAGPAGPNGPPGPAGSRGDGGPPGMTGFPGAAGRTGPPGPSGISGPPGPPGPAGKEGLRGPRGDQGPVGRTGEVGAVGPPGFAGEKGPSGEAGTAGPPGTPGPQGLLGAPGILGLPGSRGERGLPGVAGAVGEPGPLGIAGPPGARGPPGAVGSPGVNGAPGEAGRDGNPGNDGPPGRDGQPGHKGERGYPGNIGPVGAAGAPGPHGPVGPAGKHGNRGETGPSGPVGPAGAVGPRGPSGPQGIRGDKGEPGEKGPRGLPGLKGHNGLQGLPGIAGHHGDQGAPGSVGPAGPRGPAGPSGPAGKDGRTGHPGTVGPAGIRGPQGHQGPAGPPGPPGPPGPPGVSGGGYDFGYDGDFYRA
Sequence of type I collagen (P02452 162-1218): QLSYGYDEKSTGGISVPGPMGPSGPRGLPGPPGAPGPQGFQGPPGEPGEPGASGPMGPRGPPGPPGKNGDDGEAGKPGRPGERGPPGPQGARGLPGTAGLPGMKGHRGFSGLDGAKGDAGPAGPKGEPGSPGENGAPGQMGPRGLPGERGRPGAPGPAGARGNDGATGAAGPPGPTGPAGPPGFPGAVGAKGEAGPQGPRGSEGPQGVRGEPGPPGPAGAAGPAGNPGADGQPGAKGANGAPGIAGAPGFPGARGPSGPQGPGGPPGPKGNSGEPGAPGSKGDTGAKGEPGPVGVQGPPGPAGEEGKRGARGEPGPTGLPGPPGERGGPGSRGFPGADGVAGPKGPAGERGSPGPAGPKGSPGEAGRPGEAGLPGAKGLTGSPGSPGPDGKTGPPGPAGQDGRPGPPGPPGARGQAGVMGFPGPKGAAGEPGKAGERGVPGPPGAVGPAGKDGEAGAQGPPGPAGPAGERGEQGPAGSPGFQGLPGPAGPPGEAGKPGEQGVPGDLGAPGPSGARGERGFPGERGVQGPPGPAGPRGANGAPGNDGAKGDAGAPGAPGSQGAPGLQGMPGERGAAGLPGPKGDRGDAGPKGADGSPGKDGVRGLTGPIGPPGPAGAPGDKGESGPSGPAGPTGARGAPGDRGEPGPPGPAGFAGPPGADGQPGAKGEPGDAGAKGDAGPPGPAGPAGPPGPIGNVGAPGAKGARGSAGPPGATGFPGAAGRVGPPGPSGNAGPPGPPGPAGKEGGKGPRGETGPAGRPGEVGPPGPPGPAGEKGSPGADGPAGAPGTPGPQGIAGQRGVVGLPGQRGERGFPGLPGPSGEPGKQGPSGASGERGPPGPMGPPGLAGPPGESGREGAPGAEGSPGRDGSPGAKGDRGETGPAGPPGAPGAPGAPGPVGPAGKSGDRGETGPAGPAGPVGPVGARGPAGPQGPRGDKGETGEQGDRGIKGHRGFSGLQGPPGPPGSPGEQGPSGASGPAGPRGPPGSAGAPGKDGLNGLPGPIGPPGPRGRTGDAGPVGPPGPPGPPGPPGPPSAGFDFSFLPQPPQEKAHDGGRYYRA

Substance | binding to laminin (fluorescence intensity) (laminin) | binding to type IV collagen (fluorescence intensity) (type IV collagen) | fluorescence intensity compared between peptides (type I collagen; 100 μM (box in FIG. 6), type I collagen, type IV collagen, laminin wells) | binding to type I collagen (fluorescence intensity) (type I collagen; coated wells, 37° C., 3 hours) | selectivity for components of the extracellular matrix (order) (type I collagen; type I collagen, type IV collagen, laminin)
TKKTLRT | in a concentration-dependent manner | in a concentration-dependent manner | – | – | –
SYIRIADNTNIT | in a concentration-dependent manner | in a concentration-dependent manner | stronger than that of TKKTLRT | in a concentration-dependent manner | type I collagen>type IV collagen>laminin
